Experimental findings from US20110207726A1, “Inhibitors of Human Cathepsin L, Cathepsin B, and Cathepsin S” (The Trustees of the University of Pennsylvania, priority 2008, published 2011) are described below.

Holding throughout (type): biochemical
Test [1] has as its target T1, Human spleen cathepsin S (Homo sapiens, UniProt P25774).
T1 construct: Human spleen cathepsin S (Calbiochem 219344, 40 ng/mL); purchased Calbiochem 219344; host or cells: human spleen
Description: Cathepsin S assay, IC50 determination. Conditions: Table 1; read-out: IC50 Cat S. The protocol: (§1) Human spleen cathepsin S (Calbiochem 219344, 40 ng/mL) was assayed using 15 microM Z-Phe-Arg-AMC substrate. Human liver cathepsin B (Calbiochem 219362, 65 ng/mL) was assayed using 15 microM Z-Arg-Arg-AMC substrate (Bachem I-1135). All reactions were performed in 20 mM sodium acetate buffer containing 1 mM EDTA and 5 mM cysteine, pH 5.5.
(§2) Compounds were serially diluted in DMSO and transferred into a 96-well Corning 3686 assay microplate to give a 16-point two-fold serial dilution dose response ranging from 25 microM to 760 pM. Human liver cathepsin L (Calbiochem 219402) was activated by incubating with assay buffer for 30 min. Upon activation, cathepsin L (300 pM, 8.7 ng/mL) was incubated with 1 microM Z-Phe-Arg-AMC substrate (Sigma C9521) and test compound in […] of assay buffer for 1 hour at room temperature. Fluorescence of AMC released by enzyme-catalyzed hydrolysis of Z-Phe-Arg-AMC was read on a PerkinElmer Envision microplate reader (excitation 355 nm, emission 460 nm). Data were scaled using internal controls and fitted to a four-parameter logistic model (IDBS XLfit equation 205) to obtain IC50 values in triplicate.
(§3) Compound No. 1 was assayed for inhibition against papain and cathepsins B, G, K, S, and V. Papain from Carica papaya (Calbiochem 5125, 11 ng/mL), human cathepsin K (Calbiochem 342001, 35 ng/mL), human spleen cathepsin S (Calbiochem 219344, 40 ng/mL), and human cathepsin V (Calbiochem 219467, 39 ng/ml) were assayed using Z-Phe-Arg-AMC substrate at 20 μM, 20 μM, 15 μM, and 1 μM, respectively. Human liver cathepsin B (Calbiochem 219362, 65 ng/mL) was assayed using 15 μM Z-Arg-Arg-AMC substrate (Bachem I-1135). Human neutrophil cathepsin G (Calbiochem 219373, 4.2 μg/mL) was assayed using 15 μM Suc-Ala-Ala-Pro-Phe-AMC substrate (Sigma S9761). All reactions were performed in 20 mM sodium acetate buffer containing 5 mM cysteine and 1 mM EDTA, pH 5.5. Reaction progress was monitored using the Envision microplate reader. IC50 values were measured in triplicate.

Test [2] concerns the target T2, human liver cathepsin L (Homo sapiens, UniProt P07711).
T2 construct: 8.7 ng/mL human liver cathepsin L (Calbiochem 219402); purchased Calbiochem 219402; host or cells: human liver
Description: Cathepsin L assay, IC50 determination. Conditions: Table 1; read-out: IC50 Cat L. As to the method:
Assay buffer consisted of 20 mM sodium acetate, 1 mM ethylenediaminetetraacetic acid (EDTA) and 5 mM cysteine, pH 5.5. Cathepsin L was incubated in assay buffer for 30 minutes prior to dispensing into wells to allow for efficient reduction of the active site cysteine required for full enzymatic activity.
Upon activation, cathepsin L (300 pM, 8.7 ng/mL) was incubated with 1 microM Z-Phe-Arg-AMC substrate (Sigma C9521) and test compound in […] of assay buffer for 1 hour at room temperature.
All reactions were performed in 20 mM sodium acetate buffer containing 5 mM cysteine and 1 mM EDTA, pH 5.5. Reaction progress was monitored using the Envision microplate reader. IC50 values were measured in triplicate.

Test [3] deals with T3, Human liver cathepsin B (Homo sapiens, UniProt P07858).
T3 construct: Human liver cathepsin B (Calbiochem 219362, 65 ng/mL); purchased Calbiochem 219362; host or cells: human liver
The test can be described thus: Cathepsin B assay, IC50 determination. Conditions: Table 1; read-out: IC50 Cat B. As to the method: as §1, §2, §3

T2 sequence (P07711 114-288 limits assumed): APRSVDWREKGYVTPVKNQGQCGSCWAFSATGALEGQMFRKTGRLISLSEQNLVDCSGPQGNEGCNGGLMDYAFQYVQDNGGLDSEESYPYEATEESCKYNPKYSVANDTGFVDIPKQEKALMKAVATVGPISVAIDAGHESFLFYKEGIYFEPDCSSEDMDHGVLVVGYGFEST
T2 sequence (P07711 292-333 limits assumed): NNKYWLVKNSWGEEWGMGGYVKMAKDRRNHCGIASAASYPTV
T1 sequence (P25774 115-331): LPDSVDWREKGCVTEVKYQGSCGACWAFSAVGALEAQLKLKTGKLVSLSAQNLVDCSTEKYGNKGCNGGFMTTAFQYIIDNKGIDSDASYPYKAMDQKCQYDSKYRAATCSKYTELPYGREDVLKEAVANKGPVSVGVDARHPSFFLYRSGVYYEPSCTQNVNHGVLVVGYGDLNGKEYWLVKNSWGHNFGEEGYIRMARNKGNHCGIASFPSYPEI

The term IC50 denotes the concentration needed to halve the response being measured. Regarding `CC(C)(C)OC(=O)N[C@@H](Cc1ccc(OCc2ccccc2)cc1)C(=O)NNC(=O)SCC(=O)N1CCc2ccccc2C1` [Compound No. 39], the IC50 in test [1] is 1.31 µM; in test [2], 0.086 µM; in test [3] it was 3.19 µM.

For the molecule `CC(C)(C)OC(=O)N[C@@H](Cc1ccc(OCc2ccccc2)cc1)C(=O)NNC(=O)SCC(=O)N1CCc2ccccc21` [Compound No. 40], the IC50 came to 8 µM in test [1], 0.7 µM in test [2] and 3.12 µM in test [3].

On to `CC(C)(C)OC(=O)N[C@@H](Cc1ccc(OCc2ccccc2)cc1)C(=O)NNC(=O)SCC(=O)N1CCOc2ccccc21` [Compound No. 41], for which the IC50 in test [1] came out at 3.98 µM; in test [2], 1.56 µM; in test [3] it was 3.03 µM.

With `CCOC(=O)c1ccc(NC(=O)CSC(=O)NNC(=O)[C@H](Cc2ccc(OCc3ccccc3)cc2)NC(=O)OC(C)(C)C)cc1` [Compound No. 43], the half-inhibitory concentration (IC50) was 1.08 µM in test [1], 0.14 µM in test [2] and above 25 µM in test [3].

With `CCc1ccccc1NC(=O)CSC(=O)NNC(=O)[C@@H](NC(=O)OC(C)(C)C)C(C)OCc1ccccc1` (stereo partly drawn) [Compound No. 44], the IC50 worked out at 3.32 µM in test [1], 13.7 µM in test [2] and 3.67 µM in test [3].

`CC(OCc1ccccc1)[C@H](NC(=O)OC(C)(C)C)C(=O)NNC(=O)SCC(=O)N1CCCc2ccccc21` (stereo partly drawn) [Compound No. 45]: the half-maximal inhibitory concentration (IC50) in test [1] is 5.15 µM; in test [2], above 25 µM; in test [3], 4.35 µM.

Take `CCc1ccccc1NC(=O)CSC(=O)NNC(=O)[C@H](COCc1ccccc1)NC(=O)OC(C)(C)C` [Compound No. 46]: the 50% inhibitory concentration (IC50) in test [1] was found to be 2.15 µM; in test [2] it was 1.27 µM; in test [3], 14.3 µM.

Take `CC(C)(C)OC(=O)N[C@@H](COCc1ccccc1)C(=O)NNC(=O)SCC(=O)N1CCCc2ccccc21` [Compound No. 47]: the IC50 in test [1] came to 2.64 µM; in test [2], 1.51 µM; in test [3] it was 13.2 µM.

Take `CCc1ccccc1NC(=O)CSC(=O)NNC(=O)[C@@H](COCc1ccccc1)NC(=O)OC(C)(C)C` [Compound No. 48]: the figures for the IC50 in test [1], in test [2] and in test [3] were 4.42 µM, 15.4 µM and above 25 µM, respectively.

On to `CC(C)(C)OC(=O)N[C@H](COCc1ccccc1)C(=O)NNC(=O)SCC(=O)N1CCCc2ccccc21` [Compound No. 49], for which the concentration for half-maximal inhibition (IC50) in test [1] was 5.89 µM; in test [2], 17.9 µM; in test [3], above 25 µM.

As to `CC(C)(C)OC(=O)N[C@@H](COCc1ccccc1)C(=O)NNC(=O)SCC(=O)N1CCc2ccccc2C1` [Compound No. 50], the IC50 in test [1] came to 0.95 µM; in test [2], 0.37 µM; in test [3], 9.28 µM.

As for `CC(C)(C)OC(=O)N[C@@H](COCc1ccccc1)C(=O)NNC(=O)SCC(=O)NCCc1ccccc1` [Compound No. 51], the values for the IC50 in test [1], in test [2] and in test [3] were 0.65 µM, 0.51 µM and above 25 µM, respectively.

Consider `CC(C)(C)OC(=O)N[C@@H](COCc1ccccc1)C(=O)NNC(=O)SCC(=O)NCCc1ccc(Br)cc1` [Compound No. 52], for which the IC50 in test [1] was 0.91 µM; in test [2], 0.58 µM; in test [3], above 25 µM.

With `CC(C)(C)OC(=O)N[C@@H](COCc1ccccc1)C(=O)NNC(=O)SCC(=O)NCCc1c[nH]c2ccccc12` [Compound No. 53], the concentration for half-maximal inhibition (IC50) in test [1] is 0.92 µM; in test [2], 0.38 µM; in test [3], above 25 µM.

Take `CC(C)(C)OC(=O)N[C@@H](COCc1ccccc1)C(=O)NNC(=O)SCC(=O)Nc1ccccc1[N+](=O)[O-]` [Compound No. 55]: the concentration for half-maximal inhibition (IC50) came out at 1.44 µM in test [1], 0.7 µM in test [2] and 5.07 µM in test [3].

For `CCOC(=O)c1cccc(NC(=O)CSC(=O)NNC(=O)[C@H](COCc2ccccc2)NC(=O)OC(C)(C)C)c1` [Compound No. 56], the IC50 is 1.64 µM in test [1], 0.43 µM in test [2] and above 25 µM in test [3].

Turning to `CC(C)(C)OC(=O)N[C@@H](CCCCNC(=O)OCc1ccccc1)C(=O)NNC(=O)SCC(=O)N1CCCc2ccccc21` [Compound No. 57], the values for the concentration for half-maximal inhibition (IC50) in test [1], in test [2] and in test [3] were 5.15 µM, above 25 µM and 4.35 µM, respectively.

Regarding `CCc1ccccc1NC(=O)CSC(=O)NNC(=O)[C@H](CCCCNC(=O)OCc1ccccc1)NC(=O)OC(C)(C)C` [Compound No. 58], the IC50 in test [1] came out at 2.15 µM; in test [2], 1.27 µM; in test [3], 14.3 µM.

With `CC(C)(C)OC(=O)N[C@@H](CCC(=O)NC1c2ccccc2Oc2ccccc21)C(=O)NNC(=O)SCC(=O)N1CCCc2ccccc21` [Compound No. 60], the concentration for half-maximal inhibition (IC50) in test [1], in test [2] and in test [3] was above 25 µM each time.

`CCc1ccccc1NC(=O)CSC(=O)NNC(=O)[C@H](CCCNC(=N)N[N+](=O)[O-])NC(=O)OC(C)(C)C` [Compound No. 62]: the IC50 in test [1] was 2.15 µM; in test [2], 3.67 µM; in test [3], above 25 µM.

Consider `CCc1ccccc1NC(=O)CSC(=O)NNC(=O)CNC(=O)OC(C)(C)C` [Compound No. 64], for which the IC50 is above 25 µM in test [1], above 25 µM in test [2] and at least 25 µM in test [3].

On to `CCc1ccccc1NC(=O)CSC(=O)NNC(=O)[C@H](Cc1ncc[nH]1)NC(=O)OC(C)(C)C` [Compound No. 65], for which the IC50 in test [1] was above 25 µM; in test [2], above 25 µM; in test [3] it was 13.7 µM.

`CC(C)(C)OC(=O)N[C@@H](Cc1ncc[nH]1)C(=O)NNC(=O)SCC(=O)N1CCCc2ccccc21` [Compound No. 66]: the IC50 was above 25 µM in test [1], above 25 µM in test [2] and 11.6 µM in test [3].

On to `CCc1ccccc1NC(=O)CSC(=O)NNC(=O)[C@H](C)CO` [Compound No. 67], for which the 50% inhibitory concentration (IC50) in test [1], in test [2] and in test [3] was above 25 µM throughout.

For the molecule `C[C@H](CO)C(=O)NNC(=O)SCC(=O)N1CCCc2ccccc21` [Compound No. 68], the IC50 in test [1], in test [2] and in test [3] was above 25 µM each time.

With `CCc1ccccc1NC(=O)CSC(=O)NNC(=O)[C@@H](C)CO` [Compound No. 69], the IC50 in test [1], in test [2] and in test [3] was above 25 µM each time.

For `C[C@@H](CO)C(=O)NNC(=O)SCC(=O)N1CCCc2ccccc21` [Compound No. 70], the IC50 in test [1], in test [2] and in test [3] was above 25 µM in each case.

On to `CCc1ccccc1NC(=O)CSC(=O)NNC(=O)[C@@H](C)CO[Si](C)(C)C(C)(C)C` [Compound No. 71], for which the IC50 in test [1], in test [2] and in test [3] was above 25 µM in each case.

As for `CCc1ccccc1NC(=O)CSC(=O)NNC(=O)[C@@H](C)COCc1ccc(OC)cc1` [Compound No. 72], the IC50 in test [1], in test [2] and in test [3] was above 25 µM in each case.

With `CCc1ccccc1NC(=O)CSC(=O)NNC(=O)CCc1c[nH]c2ccccc12` [Compound No. 73], the IC50 in test [1], in test [2] and in test [3] was above 25 µM in each case.

With `CCc1ccccc1NC(=O)CSC(=O)NNC(=O)C[C@H](C)NC(=O)OC(C)(C)C` [Compound No. 74], the IC50 in test [1], in test [2] and in test [3] was above 25 µM each time.

For `C[C@@H](CC(=O)NNC(=O)SCC(=O)N1CCCc2ccccc21)NC(=O)OC(C)(C)C` [Compound No. 75], the concentration for half-maximal inhibition (IC50) in test [1], in test [2] and in test [3] was above 25 µM throughout.

As to `CCc1ccccc1NC(=O)CSC(=O)NNC(=O)C[C@H](CCSC)NC(=O)OC(C)(C)C` [Compound No. 76], the IC50 is 2.41 µM in test [1], 5.52 µM in test [2] and above 25 µM in test [3].
